Data on twelve molecules can be found in PubChem BioAssay (NCI).

The structures appear in SMILES notation.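 48-hour exposure; five concentrations; linearly interpolated endpoints. GI50 marks 50% less growth. The concentration for full growth arrest is given as TGI.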

Test systems include 786-0 renal; PC-3 prostate; SF-268 CNS; HOP-92 NSCLC; NCI/ADR-RES ovarian; NCI-H460 lung; SNB-75 CNS; HL-60(TB) leukemia; UO-31 renal; RXF 393 renal.
Assay in all cases: NCI tumour cell line growth inhibition, 48 h

On to `O=C1CC(c2ccc(Cl)cc2)Oc2ccccc21` (stereo not drawn), for which the TGI in the experiment on 786-0 renal was 32.4 µM; in the experiment on PC-3 prostate it was 52.5 µM; with SF-268 CNS, greater than 100 µM; in the experiment on HOP-92 NSCLC, 56.5 µM; in the experiment with NCI/ADR-RES ovarian it was 50.6 µM; with NCI-H460 lung, 45.3 µM. The TGI in the experiment with SNB-75 CNS was 50.1 µM; in the experiment on HL-60(TB) leukemia it was 34.1 µM; in the experiment on UO-31 renal it was greater than 100 µM.
With `CCCNc1nc2ccccc2c2c1S(=O)(=O)c1ccc(Cl)cc1C2=O`, the GI50 in the experiment with 786-0 renal is 1.7 µM; in the experiment on PC-3 prostate it was 0.225 µM; in the experiment with SF-268 CNS, 1.35 µM; in the experiment with HOP-92 NSCLC, 0.0899 µM; in the experiment on NCI/ADR-RES ovarian, 1.37 µM; with NCI-H460 lung, 1.3 µM. The GI50 was 0.263 µM with RXF 393 renal, 1.49 µM in the experiment on HL-60(TB) leukemia and 1.11 µM with UO-31 renal. Also, the TGI in the experiment on 786-0 renal was greater than 50 µM; in the experiment on PC-3 prostate, greater than 50 µM; in the experiment on SF-268 CNS, greater than 50 µM; in the experiment on HOP-92 NSCLC it was 0.475 µM; in the experiment on NCI/ADR-RES ovarian, greater than 50 µM; in the experiment on NCI-H460 lung, 4.47 µM. In addition, the TGI was 1.57 µM in the experiment on RXF 393 renal, greater than 50 µM in the experiment with HL-60(TB) leukemia and greater than 50 µM with UO-31 renal.
In the case of `NCCSCCc1ccccc1`, the TGI in the experiment on 786-0 renal, with PC-3 prostate, with SF-268 CNS, in the experiment on HOP-92 NSCLC, in the experiment with NCI/ADR-RES ovarian and with NCI-H460 lung was greater than 100 µM throughout. In addition, the TGI in the experiment with SNB-75 CNS, in the experiment with RXF 393 renal and in the experiment on UO-31 renal was greater than 100 µM in each case.
Take `c1ccc(CNc2nc(Nc3ccccc3)nc3ccccc23)cc1`: the GI50 is 1.66 µM in the experiment with 786-0 renal; 1.66 µM in the experiment on PC-3 prostate; 3.01 µM in the experiment with SF-268 CNS; 1.45 µM with HOP-92 NSCLC; 1.99 µM in the experiment with NCI/ADR-RES ovarian; 1.93 µM in the experiment with SNB-75 CNS. The GI50 was 1.65 µM in the experiment with RXF 393 renal and 2.1 µM in the experiment on UO-31 renal. Further, the TGI is 3.12 µM with 786-0 renal; 4.9 µM in the experiment with PC-3 prostate; 9.3 µM in the experiment on SF-268 CNS; 3.05 µM in the experiment on HOP-92 NSCLC; 5 µM in the experiment with NCI/ADR-RES ovarian; 6.5 µM with SNB-75 CNS. The TGI in the experiment on RXF 393 renal stood at 3.2 µM; in the experiment on UO-31 renal, 8.53 µM.
`ClCc1ccc(Cn2cnc3c(Cl)nc(Cl)nc32)cc1`: the GI50 in the experiment on 786-0 renal is 14 µM; with PC-3 prostate, 2.7 µM; in the experiment with SF-268 CNS, 2.51 µM; in the experiment with NCI/ADR-RES ovarian, 16.5 µM; in the experiment on NCI-H460 lung it was 2.39 µM; with SNB-75 CNS it was 3.13 µM. Also, the values for the GI50 in the experiment on RXF 393 renal and in the experiment with UO-31 renal were 20.9 µM and 19.3 µM, respectively. Also, the TGI in the experiment on 786-0 renal is 29.5 µM; in the experiment with PC-3 prostate, 7.17 µM; in the experiment on SF-268 CNS it was 5.42 µM; with NCI/ADR-RES ovarian, greater than 100 µM; with NCI-H460 lung, 4.92 µM; in the experiment on SNB-75 CNS, 9.32 µM. Further, the TGI worked out at 41.5 µM with RXF 393 renal and 35.5 µM with UO-31 renal.
With `C=CCCCc1ccc(C(O)CCCCCCCCCCCC)o1` (stereo not drawn), the GI50 with 786-0 renal is 15.2 µM; in the experiment on PC-3 prostate, 19.8 µM; with SF-268 CNS, 16.1 µM; in the experiment with HOP-92 NSCLC, 15.4 µM; with NCI/ADR-RES ovarian, 17.4 µM; in the experiment with NCI-H460 lung, 22 µM. Besides, the GI50 was 15.5 µM in the experiment on SNB-75 CNS, 19.6 µM with RXF 393 renal and 16.3 µM in the experiment on UO-31 renal. For the same molecule, the TGI with 786-0 renal is 28.5 µM; in the experiment with PC-3 prostate it was 46 µM; in the experiment on SF-268 CNS, 35 µM; with HOP-92 NSCLC, 31.9 µM; in the experiment with NCI/ADR-RES ovarian, 34.2 µM; in the experiment with NCI-H460 lung it was 60.7 µM. The figures for the TGI with SNB-75 CNS, in the experiment with RXF 393 renal and with UO-31 renal were 32 µM, 39.3 µM and 30.3 µM, respectively.
Turning to `O=C(Nc1ccc(Cl)c(Cl)c1)OCCN1c2ccccc2Sc2ccccc21`, the TGI in the experiment with 786-0 renal, with PC-3 prostate, in the experiment on SF-268 CNS, with HOP-92 NSCLC, in the experiment on NCI/ADR-RES ovarian and with SNB-75 CNS was greater than 10 µM each time. Moreover, the TGI in the experiment with HL-60(TB) leukemia was greater than 10 µM.
Regarding `CN1C(Cl)=NS(=O)(=O)c2ccccc21`, the TGI in the experiment with 786-0 renal, in the experiment on PC-3 prostate, in the experiment with SF-268 CNS, in the experiment on HOP-92 NSCLC, in the experiment on NCI/ADR-RES ovarian and in the experiment on NCI-H460 lung was greater than 100 µM in each case. For the same molecule, the TGI with RXF 393 renal, in the experiment on HL-60(TB) leukemia and with UO-31 renal was greater than 100 µM each time.
With `CC1=C(/C=C/C(C)=C/C=C/C(C)=C/CO)C(C)(C)CCC1`, the TGI with 786-0 renal was 34.2 µM; in the experiment on PC-3 prostate it was greater than 100 µM; in the experiment with SF-268 CNS it was 52 µM; with NCI/ADR-RES ovarian it was 43.1 µM; in the experiment with NCI-H460 lung it was greater than 100 µM; with RXF 393 renal, 28.3 µM. For the same molecule, the TGI in the experiment with HL-60(TB) leukemia was determined as 45.3 µM; in the experiment on UO-31 renal it was 31.8 µM.
As to `Cc1cccc(Nc2cnc(N)nc2N)c1`, the TGI in the experiment on 786-0 renal, in the experiment on PC-3 prostate, in the experiment on HOP-92 NSCLC, in the experiment with NCI/ADR-RES ovarian, with SNB-75 CNS and in the experiment with RXF 393 renal was greater than 100 µM each time. Also, the TGI with HL-60(TB) leukemia and with UO-31 renal was greater than 100 µM throughout.
Consider `C=CS(=O)(=O)CCN1CC1`, for which the TGI in the experiment on 786-0 renal, in the experiment with PC-3 prostate, with SF-268 CNS, in the experiment with HOP-92 NSCLC, in the experiment on NCI/ADR-RES ovarian and with SNB-75 CNS was greater than 10 µM each time. Besides, the TGI in the experiment on HL-60(TB) leukemia is greater than 10 µM.
On to `COc1ccc(-c2nn(-c3cccc(NC(=O)c4ccc(N5CCOCC5)c(C(F)(F)F)c4)c3)cc2-c2ccncc2)cc1Cl`, for which the GI50 in the experiment with 786-0 renal was 1.51 µM; in the experiment with PC-3 prostate it was 3.49 µM; with SF-268 CNS, 13.3 µM; with NCI/ADR-RES ovarian, 3.41 µM; with NCI-H460 lung it was 5.23 µM; in the experiment with SNB-75 CNS, 0.797 µM. The GI50 was 1.35 µM in the experiment on RXF 393 renal, 4.42 µM with HL-60(TB) leukemia and 20.8 µM in the experiment with UO-31 renal. The TGI was 27.6 µM with 786-0 renal; greater than 50 µM in the experiment on PC-3 prostate; greater than 50 µM in the experiment on SF-268 CNS; 24.5 µM with NCI/ADR-RES ovarian; greater than 50 µM with NCI-H460 lung; 4.95 µM in the experiment with SNB-75 CNS. Moreover, the TGI in the experiment on RXF 393 renal was 23.3 µM; in the experiment on HL-60(TB) leukemia, greater than 50 µM; in the experiment on UO-31 renal, greater than 50 µM.
